Data as given in patent publication US20100003217A1, “Compounds and Pharmaceutical Compositions for the Treatment of Viral Infections” (priority 2008, published 2010).
Where “and” joins values, the source holds several entries; their conditions need not be identical. Identical values can stand only once.

Test system: Huh-7 cells
Assay: Metabolic disposition of [^14C]-Compound 1 and [^14C]-2′-C-methyl guanosine in Huh-7 cells (incubation medium, cellular extracts, nucleotide levels)
Assay type: in vitro ADME, human
Details: for Major metabolites observed in cellular extracts (% of total radioactivity) / 2′-C-methyl guanosine nucleotide levels in cellular extracts: Huh7; for % Residual [^14C]-Compound 1 in incubation medium / metabolites observed in medium (% of total radioactivity): Huh7 cells (n=2); for % Residual [^14C]-Compound 1 in incubation medium: 10 μM
Procedure: Huh-7 cells: Confluent monolayers of Huh-7 cells were dispersed using trypsin-EDTA, rinsed and pelleted by centrifugation at 1,000 rpm (Beckman, Model Allegra 6R). Cells were resuspended at 0.2, 0.3 and 0.4×10^6 cells/mL of medium (DMEM supplemented with 1% pyruvate, 10% FBS, 0.5% penicillin-streptomycin, 1% L-glutamine, 1% non-essential amino acids and 22 mM HEPES). Multi-well collagen I-coated plates (rat tail collagen type I; 6-well) were then seeded by addition of 2.0 mL of cell suspension to achieve final cell density of 0.4, 0.6 and 0.8×10^6 cells/well and placed in an incubator at 37° C. overnight to allow cells to attach and acclimatize to culture and the medium. Duplicate plates were prepared with the same cell density for cell number determination at each time point.
Huh-7 incubations were conducted in a final volume of 2.0 mL Huh7 culture medium/well ([…]). Culture medium from overnight incubation of cells was removed and replaced with fresh culture medium, pre-warmed to 37° C. containing [^14C]-Compound 1 or [^14C]-2′-C-methyl guanosine as described above for primary hepatocytes. After 24, 48 and 72 hours, 0.5-1.0 mL of incubation medium was removed and stored at −20° C. until analysis (described below). The remaining medium was discarded and cell monolayers processed and extracted as described above.
Preliminary identification of putative metabolites was conducted by comparing the retention time of observed metabolites in incubation medium and cellular extracts with retention times obtained with chemically synthesized standards using the chromatography conditions described below. Further identification of 2′-C-methyl guanosine nucleotides (mono-, di- and triphosphate) was carried out by incubating cellular extract samples with alkaline phosphatase (10 units for 60 min at 37° C.) and comparing the HPLC retention times of the resulting nucleosides with that of authentic 2′-C-methyl guanosine.
Cellular extracts were prepared by centrifugation at 16,000 RCF using an Eppendorf microcentrifuge (Eppendorf, Model 5415D) for 10 min to remove cellular debris. An aliquot of 5-10 μL of the supernatant was added to 5 mL of EcoLite™ (MP, Irvine, Calif.) liquid scintillation cocktail and radioactivity measured by liquid scintillation counting (LSC) using a Beckman Coulter LS6500 multipurpose liquid scintillation counter (Beckman Instruments, Fullerton, Calif.). The remaining sample was then dried using a Labconco refrigerated centrivap concentrator (Labconco, Kansas City, Mo.). Dry extracts were reconstituted in 120 μL of HPLC-grade water and centrifuged at 16,000 RCF using an Eppendorf microcentrifuge for 10 min. Prior to HPLC analysis (described below), radioactivity of the concentrated extracts was measured by LSC using 5 μL aliquots. Extraction recovery was then determined by comparing total radioactivity in extracts before and after drying. The remaining extract was then analyzed by HPLC with online radioactivity detection using a Flow Scintillation Analyzer Radiomatic™ 515TR. Radioactivity in the separated components was quantified by integrating the peaks using Flo-One™ Software (Perkin Elmer Life Sciences). Samples with poor recovery (<85%) were re-analyzed when possible.
Incubation medium samples were thawed at room temperature, vortexed and centrifuged at 16,000 RCF using an Eppendorf microcentrifuge. An aliquot of 10 μL was added to 5 mL of EcoLite™ (MP, Irvine, Calif.) liquid scintillation cocktail and radioactivity measured by LSC using a Beckman Coulter LS6500 multipurpose liquid scintillation counter (Beckman Instruments, Fullerton, Calif.). Samples (50-100 μL) were then analyzed by HPLC (described below) with online radioactivity detection using a Flow Scintillation Analyzer Radiomatic™ 515TR. Radioactivity in the separated components was quantified by integrating the peaks using Flo-One™ Software (Perkin Elmer Life Sciences). Samples with poor recovery (<85%) were re-analyzed when possible. […]

[1] = 10 μM [^14C]-Compound 1, 24 h, first series
[2] = 10 μM [^14C]-Compound 1, 24 h, second series
[3] = 10 μM [^14C]-Compound 1, 48 h, first series
[4] = 10 μM [^14C]-Compound 1, 48 h, second series
[5] = 10 μM [^14C]-Compound 1, 72 h, first series
[6] = 10 μM [^14C]-Compound 1, 72 h, second series
[7] = 10 μM [^14C]-2′-C-methyl guanosine, 24 h
[8] = 10 μM [^14C]-2′-C-methyl guanosine, 48 h
[9] = 10 μM [^14C]-2′-C-methyl guanosine, 72 h

| Major metabolites observed in cellular extracts (% of total radioactivity) [4] | metabolites observed in medium (% of total radioactivity) (10 μM [^14C]-Compound 1, 0 h) | metabolites observed in medium (% of total radioactivity) (10 μM [^14C]-Compound 1, 24 h) | metabolites observed in medium (% of total radioactivity) (10 μM [^14C]-Compound 1, 48 h) | metabolites observed in medium (% of total radioactivity) (10 μM [^14C]-Compound 1, 72 h) | SMILES | Major metabolites observed in cellular extracts (% of total radioactivity) [1] | Major metabolites observed in cellular extracts (% of total radioactivity) [2] | Major metabolites observed in cellular extracts (% of total radioactivity) [3] | Major metabolites observed in cellular extracts (% of total radioactivity) [5] | Major metabolites observed in cellular extracts (% of total radioactivity) [6] | Major metabolites observed in cellular extracts (% of total radioactivity) [7] | Major metabolites observed in cellular extracts (% of total radioactivity) [8] | Major metabolites observed in cellular extracts (% of total radioactivity) [9] | also measured |
| --- | --- | --- | --- | --- | --- | --- | --- | --- | --- | --- | --- | --- | --- | --- |
| 2.65 % of total radioactivity | BLD and BLD^a | 2.2% and 1.10% and 1.2% | 2.7% and 0.5% | 2% and 2.3% and 1.5% | C[C@@]1(O)[C@H](O)[C@@H](CO)O[C@H]1n1cnc2c(=O)[nH]c(N)nc21 [2′-C-methyl guanosine, 9-(2-C-methyl-β-D-ribofuranosyl)guanine, reference compound] | BLD^a (BLD = below limit of detection (30 DPM)) | BLD^a (BLD = below limit of detection (30 DPM)) | BLD (BLD = below limit of detection (30 DPM)) | BLD (BLD = below limit of detection (30 DPM)) | BLD (BLD = below limit of detection (30 DPM)) | 89.5 % of total radioactivity | 89.3 % of total radioactivity | 89.6 % of total radioactivity | metabolites in the incubation medium following incubation with [^14C]-2′-C-methyl guanosine (Huh7 cells): No metabolites were observed |
|  | 1.7% and 2.9% | 8.2% and 8.0% | 18.3% and 17.2% | 26% and 25.3% and 27.2% | C[C@@]1(O)[C@H](O)[C@@H](COP(=O)(O)NCc2ccccc2)O[C@H]1n1cnc2c(=O)[nH]c(N)nc21 [Compound 2, [(2R)-2-methyl-β-D-ribofuranosyl]guanine-N-benzylaminyl-5′-monophosphate] |  |  |  |  |  |  |  |  |  |
| 5.82 % of total radioactivity | BLD | 2.0% and 3.2% | 0.8% and 1.5% | 0.7% and 1.0% | C[C@@]1(O)[C@H](O)[C@@H](COP(=O)(O)O)O[C@H]1n1cnc2c(=O)[nH]c(N)nc21 [Compound 5, [(2R)-2-methyl-β-D-ribofuranosyl]guanine 5′-monophosphate] | BLD (BLD = below limit of detection (30 DPM)) | 4.81 % of total radioactivity | 6.57 % of total radioactivity | 6.93 % of total radioactivity | 5.74 % of total radioactivity | BLD^a (BLD = below limit of detection (30 DPM)) | BLD (BLD = below limit of detection (30 DPM)) | BLD (BLD = below limit of detection (30 DPM)) | 2′-C-methyl guanosine nucleotide levels in cellular extracts (10 μM [^14C]-2′-C-methyl guanosine, 0 h, n = 1): 0 pmol/million cells; 2′-C-methyl guanosine nucleotide levels in cellular extracts (10 μM [^14C]-2′-C-methyl guanosine, 24 h, n = 1): BLD^a (BLD = below limit of detection (0.02 pmol/million cells)); 2′-C-methyl guanosine nucleotide levels in cellular extracts (10 μM [^14C]-2′-C-methyl guanosine, 48 h, n = 1): BLD (BLD = below limit of detection (0.02 pmol/million cells)); 2′-C-methyl guanosine nucleotide levels in cellular extracts (10 μM [^14C]-2′-C-methyl guanosine, 72 h, n = 1): BLD (BLD = below limit of detection (0.02 pmol/million cells)); 2′-C-methyl guanosine nucleotide levels in cellular extracts (10 μM [^14C]-Compound 1, 0 h, replicate 1 of n = 2): 0 pmol/million cells; 2′-C-methyl guanosine nucleotide levels in cellular extracts (10 μM [^14C]-Compound 1, 0 h, replicate 2 of n = 2): 0 pmol/million cells; 2′-C-methyl guanosine nucleotide levels in cellular extracts (10 μM [^14C]-Compound 1, 24 h, replicate 1 of n = 2): BLD^a (BLD = below limit of detection (0.02 pmol/million cells)); 2′-C-methyl guanosine nucleotide levels in cellular extracts (10 μM [^14C]-Compound 1, 24 h, replicate 2 of n = 2): 1.40 pmol/million cells; 2′-C-methyl guanosine nucleotide levels in cellular extracts (10 μM [^14C]-Compound 1, 48 h, replicate 1 of n = 2): 1.50 pmol/million cells; 2′-C-methyl guanosine nucleotide levels in cellular extracts (10 μM [^14C]-Compound 1, 48 h, replicate 2 of n = 2): 1.50 pmol/million cells; 2′-C-methyl guanosine nucleotide levels in cellular extracts (10 μM [^14C]-Compound 1, 72 h, replicate 1 of n = 2): 1.10 pmol/million cells; 2′-C-methyl guanosine nucleotide levels in cellular extracts (10 μM [^14C]-Compound 1, 72 h, replicate 2 of n = 2): 1.10 pmol/million cells |

| SMILES | Major metabolites observed in cellular extracts (% of total radioactivity) [4] | metabolites observed in medium (% of total radioactivity) (10 μM [^14C]-Compound 1, 0 h) | metabolites observed in medium (% of total radioactivity) (10 μM [^14C]-Compound 1, 24 h) | metabolites observed in medium (% of total radioactivity) (10 μM [^14C]-Compound 1, 48 h) | metabolites observed in medium (% of total radioactivity) (10 μM [^14C]-Compound 1, 72 h) | Major metabolites observed in cellular extracts (% of total radioactivity) [1] | Major metabolites observed in cellular extracts (% of total radioactivity) [2] | Major metabolites observed in cellular extracts (% of total radioactivity) [3] | Major metabolites observed in cellular extracts (% of total radioactivity) [5] | Major metabolites observed in cellular extracts (% of total radioactivity) [6] | Major metabolites observed in cellular extracts (% of total radioactivity) [7] | Major metabolites observed in cellular extracts (% of total radioactivity) [8] | Major metabolites observed in cellular extracts (% of total radioactivity) [9] | also measured |
| --- | --- | --- | --- | --- | --- | --- | --- | --- | --- | --- | --- | --- | --- | --- |
| CC(C)(CO)C(=O)SCCOP(=O)(NCc1ccccc1)OC[C@H]1O[C@@H](n2cnc3c(=O)[nH]c(N)nc32)[C@](C)(O)[C@@H]1O (mixture of isomers) [Compound 1, 3-hydroxy-2,2-dimethyl-thiopropionic acid S-(2-{[(2R,3R,4R,5R)-5-(2-amino-6-oxo-1,6-dihydro-purin-9-yl)-3,4-dihydroxy-4-methyl-tetrahydro-furan-2-ylmethoxy]-benzylamino-phosphoryloxy}-ethyl) ester] | 21.2 % of total radioactivity |  |  |  |  | 40.3 % of total radioactivity | 10.4 % of total radioactivity | 15.8 % of total radioactivity | 14.1 % of total radioactivity | 16.2 % of total radioactivity |  |  |  | % Residual [^14C]-Compound 1 in incubation medium (0 h): 98% and 96%; % Residual [^14C]-Compound 1 in incubation medium (24 h): 86% and 85%; % Residual [^14C]-Compound 1 in incubation medium (48 h): 76% and 77%; % Residual [^14C]-Compound 1 in incubation medium (72 h): 67% and 65% and 68%; unchanged Compound 1, % of the total radioactivity (Huh7 cells, after 72 hours incubation with [^14C]-Compound 1): 15% |
